Data published in US20060069132A1, “Azolecarboxamide herbicides” (priority 2004, published 2006).

How the values were obtained:
rice [1] = assay: Test B pre-/postemergence herbicide test; assay type: in vivo, Oryza sativa; conditions: 0 = no effect, 100 = complete control, preemergence
In short: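 Evaluation is visual, comparing treated with control plants on a scale where 0 means no effect and 100 means full control. Treatments were preemergence, or postemergence on seedlings 2–18 cm tall, and held 13–15 days in the greenhouse.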

barnyardgrass [2] = assay: Test C flooded paddy test; assay type: in vivo, Echinochloa crus-galli
In short: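 Plants were grown to the 1- to 4-leaf stage (2–18 cm) and then treated postemergence, or grown to the 2-leaf stage for the flooded paddy test. They were held in a greenhouse for 12 to 14 days and then scored by eye against controls, where 0 is no effect and 100 is complete control.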

barnyardgrass [3] = assay: Test B pre-/postemergence herbicide test; assay type: in vivo, Echinochloa crus-galli; conditions: for Barnyardgrass plant response rating: postemergence, scale 0 (no effect) to 100 (complete control)
In short: (§1)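 Pre: seeds sown, then sprayed. Post: 1–4-leaf plants (2–18 cm) sprayed at the same time. Paddy: flooded, treated at 2-leaf stage. Formulation: non-phytotoxic solvent with surfactant. Greenhouse 13–15 days; visual 0–100 score relative to controls.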

rice [4] = assay: Test C flooded paddy test; assay type: in vivo, Oryza sativa
In short: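 Injury scored visually against controls on a 0 (no effect) to 100 (complete control) scale, 12 to 14 days after treatment in greenhouse. Flooded paddy plants treated at 2-leaf stage; postemergence plants at 1- to 4-leaf stage, 2 to 18 cm tall.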

blackgrass = assay: Test B postemergence herbicide test; assay type: in vivo, Alopecurus myosuroides; conditions: postemergence, visual rating, scale 0 (no effect) to 100 (complete control)
In short: (§2)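 Read-out: visual comparison with controls, scored 0 to 100, where 100 means complete control and 0 no effect. Formulated chemicals were applied postemergence to plants 2–18 cm tall (1- to 4-leaf), or to flooded-paddy plants at the 2-leaf stage, then held 13 to 15 days under glass.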

cocklebur = assay: Test B pre-/postemergence herbicide test; assay type: in vivo, Xanthium strumarium; conditions: for Cocklebur plant response rating: postemergence, scale 0 (no effect) to 100 (complete control)
In short: as §1

[5] = system: smallflower umbrella sedge; assay: Test C flooded paddy test; assay type: in vivo, Cyperus difformis
pigweed = assay: Test B pre-/postemergence herbicide test; assay type: in vivo, Amaranthus retroflexus; conditions: for Pigweed plant response rating: postemergence, scale 0 (no effect) to 100 (complete control)
In short: (§3)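 Flooded paddy rice and barnyardgrass were treated at the 2-leaf stage; upland plantings received compound either on sown seed or on 1- to 4-leaf seedlings. All were kept 13–15 days in a greenhouse and scored visually, 0–100, relative to untreated plants.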

lambsquarters = assay: Test B pre-/postemergence herbicide test; assay type: in vivo, Chenopodium album; conditions: for Lambsquarters plant response rating: postemergence, scale 0 (no effect) to 100 (complete control)
In short: as §3

ducksalad [6] = assay: Test C flooded paddy test; assay type: in vivo, Heteranthera limosa
barnyardgrass [7] = assay: Test B flooded paddy test; assay type: in vivo, Echinochloa crus-galli; conditions: 1000 g ai/ha, visual rating, scale 0 to 100 (0 no effect, 100 complete control), 13 to 15 days
In short: as §2

Surinam grass = assay: Test B pre-/postemergence herbicide test; assay type: in vivo, Urochloa decumbens; conditions: for Surinam Grass plant response rating: postemergence, scale 0 (no effect) to 100 (complete control)
In short: as §3

velvetleaf = assay: Test B pre-/postemergence herbicide test; assay type: in vivo, Abutilon theophrasti; conditions: for Velvetleaf plant response rating: postemergence, scale 0 (no effect) to 100 (complete control)
In short: as §3

ducksalad [8] = assay: Test B flooded paddy test; assay type: in vivo, Heteranthera limosa; conditions: 1000 g ai/ha, visual rating, scale 0 to 100 (0 no effect, 100 complete control), 13 to 15 days
In short: as §2

rice [9] = assay: Test B flooded paddy test; assay type: in vivo, Oryza sativa; conditions: 1000 g ai/ha, visual rating, scale 0 to 100 (0 no effect, 100 complete control), 13 to 15 days
In short: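 After treating 2-leaf paddy plants or 2–18 cm postemergence plants (1 to 4 leaves) with formulated chemical, researchers kept them in a greenhouse for 13–15 days. Effects were judged visually versus controls: 0 indicates none, 100 total control.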

morningglory = assay: Test B pre-/postemergence herbicide test; assay type: in vivo, Ipomoea coccinea; conditions: for Morningglory plant response rating: postemergence, scale 0 (no effect) to 100 (complete control)
In short: as §1

wheat = assay: Test B postemergence herbicide test; assay type: in vivo, Triticum aestivum; set-up: key to Wheat plant response rating: 0 = no effect, 100 = complete control; conditions: postemergence, visual rating, scale 0 (no effect) to 100 (complete control)
In short: (§4)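 Greenhouse test; postemergence application to plants at 1–4 leaves (2–18 cm); paddy species at 2 leaves; evaluated visually vs controls at 13–15 days; scale 0–100 (100 = complete control).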

large crabgrass = assay: Test B pre-/postemergence herbicide test; assay type: in vivo, Digitaria sanguinalis; conditions: for Crabgrass, Large plant response rating: postemergence, scale 0 (no effect) to 100 (complete control)
In short: as §3

corn = assay: Test B pre-/postemergence herbicide test; assay type: in vivo, Zea mays; conditions: for Corn plant response rating: postemergence, scale 0 (no effect) to 100 (complete control)
In short: as §3

[10] = system: small flower umbrella sedge; assay: Test B flooded paddy test; assay type: in vivo, Cyperus difformis; conditions: 1000 g ai/ha, visual rating, scale 0 to 100 (0 no effect, 100 complete control), 13 to 15 days
In short: as §2

giant foxtail = assay: Test B pre-/postemergence herbicide test; assay type: in vivo, Setaria faberi; conditions: for Foxtail, Giant plant response rating: postemergence, scale 0 (no effect) to 100 (complete control)
In short: as §3

wild oat = assay: Test B postemergence herbicide test; assay type: in vivo, Avena fatua; conditions: postemergence, visual rating, scale 0 (no effect) to 100 (complete control)
In short: as §4

[11] = 62 g ai/ha, scale 0 to 100 (0 no effect, 100 complete control)
[12] = 125 g ai/ha, scale 0 to 100 (0 no effect, 100 complete control)
[13] = 250 g ai/ha, scale of 0 to 100, 0 is no effect, 100 is complete control
[14] = 500 g ai/ha, visual rating after 12 to 14 days, scale 0 to 100 (0 no effect, 100 complete control)
[15] = 125 g ai/ha, 0 = no effect, 100 = complete control, preemergence
[16] = 500 g ai/ha, visual rating, 0 = no effect, 100 = complete control, preemergence

Compound: CCc1nc(C(C)(C)C)sc1C(=O)Nc1cccc(C(=O)N(C)C)c1 [Compound 228]
- Rice plant response rating (0 to 100 scale) (rice [1]; 125 g ai/ha): 80
- Plant response rating, Rice (rice [1]; 500 g ai/ha, visual rating): 90
- Barnyardgrass plant response rating (barnyardgrass [2]; [11]): 80
- Barnyardgrass plant response rating (barnyardgrass [2]; [12]): 85
- Barnyardgrass plant response rating (barnyardgrass [2]; [13]): 95
- Plant response rating, Barnyardgrass (barnyardgrass [2]; [14]): 95
- Barnyardgrass plant response rating (0 to 100 scale) (barnyardgrass [3]; [15]): 80
- Plant response rating, Barnyardgrass (barnyardgrass [3]; [16]): 100
- Barnyardgrass plant response rating (barnyardgrass [3]; 125 g ai/ha, visual rating): 30
- Barnyardgrass plant response rating (barnyardgrass [3]; 500 g ai/ha, visual rating): 70
- Rice plant response rating (rice [4]; [11]): 75
- Rice plant response rating (rice [4]; [12]): 80
- Rice plant response rating (rice [4]; [13]): 80
- Plant response rating, Rice (rice [4]; [14]): 85
- Blackgrass plant response rating (blackgrass; 125 g ai/ha): 30
- Blackgrass plant response rating (blackgrass; 500 g ai/ha): 40
- Cocklebur plant response rating (0 to 100 scale) (cocklebur; [15]): 30
- Plant response rating, Cocklebur (cocklebur; [16]): 80
- Cocklebur plant response rating (cocklebur; 125 g ai/ha, visual rating): 30
- Cocklebur plant response rating (cocklebur; 500 g ai/ha, visual rating): 80
- Sedge, Umbrella plant response rating [5, 11]: 80
- Sedge, Umbrella plant response rating [5, 12]: 80
- Sedge, Umbrella plant response rating [5, 13]: 80
- Plant response rating, Sedge, Umbrella [5, 14]: 85
- Pigweed plant response rating (0 to 100 scale) (pigweed; [15]): 90
- Plant response rating, Pigweed (pigweed; [16]): 100
- Pigweed plant response rating (pigweed; 125 g ai/ha, visual rating): 50
- Pigweed plant response rating (pigweed; 500 g ai/ha, visual rating): 80
- Lambsquarters plant response rating (0 to 100 scale) (lambsquarters; [15]): 100
- Plant response rating, Lambsquarters (lambsquarters; [16]): 100
- Lambsquarters plant response rating (lambsquarters; 125 g ai/ha, visual rating): 70
- Lambsquarters plant response rating (lambsquarters; 500 g ai/ha, visual rating): 80
- Ducksalad plant response rating (ducksalad [6]; [11]): 80
- Ducksalad plant response rating (ducksalad [6]; [12]): 85
- Ducksalad plant response rating (ducksalad [6]; [13]): 90
- Plant response rating, Ducksalad (ducksalad [6]; [14]): 90
- Barnyardgrass plant response rating (barnyardgrass [7]): 90
- Surinam Grass plant response rating (0 to 100 scale) (Surinam grass; [15]): 60
- Plant response rating, Surinam Grass (Surinam grass; [16]): 100
- Surinam Grass plant response rating (Surinam grass; 125 g ai/ha, visual rating): 20
- Surinam Grass plant response rating (Surinam grass; 500 g ai/ha, visual rating): 40
- Velvetleaf plant response rating (0 to 100 scale) (velvetleaf; [15]): 100
- Plant response rating, Velvetleaf (velvetleaf; [16]): 100
- Velvetleaf plant response rating (velvetleaf; 125 g ai/ha, visual rating): 60
- Velvetleaf plant response rating (velvetleaf; 500 g ai/ha, visual rating): 80
- Ducksalad plant response rating (ducksalad [8]): 90
- Rice plant response rating (rice [9]): 90
- Morningglory plant response rating (0 to 100 scale) (morningglory; [15]): 10
- Plant response rating, Morningglory (morningglory; [16]): 40
- Morningglory plant response rating (morningglory; 125 g ai/ha, visual rating): 70
- Morningglory plant response rating (morningglory; 500 g ai/ha, visual rating): 80
- Wheat plant response rating (wheat; 125 g ai/ha): 30
- Wheat plant response rating (wheat; 500 g ai/ha): 40
- Crabgrass, Large plant response rating (0 to 100 scale) (large crabgrass; [15]): 60
- Plant response rating, Crabgrass, Large (large crabgrass; [16]): 100
- Crabgrass, Large plant response rating (large crabgrass; 125 g ai/ha, visual rating): 20
- Crabgrass, Large plant response rating (large crabgrass; 500 g ai/ha, visual rating): 40
- Corn plant response rating (0 to 100 scale) (corn; [15]): 60
- Plant response rating, Corn (corn; [16]): 80
- Corn plant response rating (corn; 125 g ai/ha, visual rating): 10
- Corn plant response rating (corn; 500 g ai/ha, visual rating): 30
- Sedge, Umbrella plant response rating [10]: 80
- Foxtail, Giant plant response rating (0 to 100 scale) (giant foxtail; [15]): 70
- Plant response rating, Foxtail, Giant (giant foxtail; [16]): 100
- Foxtail, Giant plant response rating (giant foxtail; 125 g ai/ha, visual rating): 30
- Foxtail, Giant plant response rating (giant foxtail; 500 g ai/ha, visual rating): 50
- Oat, Wild plant response rating (wild oat; 125 g ai/ha): 40
- Oat, Wild plant response rating (wild oat; 500 g ai/ha): 50
